# Patent US20130143929A1, “FUNGICIDAL IMIDAZOLES” (EI DU PONT DE NEMOURS AND COMPANY, priority 2010, published 2013)
# Marks after values point to notes of the source that are not given here.
# What was measured:
# Assay type in all cases: in vivo
# [1] = system: Blumeria graminis f. sp. tritici (also known as Erysiphe graminis f. sp. tritici, the causal agent of wheat powdery mildew); experiment: Test D: wheat powdery mildew, preventive spray on wheat seedlings, visual disease rating; conditions: for Test D rating (100 = 100% disease control, 0 = no disease control relative to the controls): wheat powdery mildew, preventive spray on wheat seedlings
# Outline: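 Preventive test: seedlings sprayed to run-off and inoculated with powdery mildew spores one day later. Suspensions were made in 50/50 acetone/water with 250 ppm Trem 014 surfactant (200 ppm equals 800 g/ha). Visual ratings after 8 days at 20 °C give percent disease control versus controls.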
# [2] = system: Botrytis cinerea (the causal agent of tomato Botrytis); experiment: Test C: tomato Botrytis, preventive spray on tomato seedlings, visual disease rating; conditions: for Test C rating (100 = 100% disease control, 0 = no disease control relative to the controls): tomato Botrytis, preventive spray on tomato seedlings
# Outline: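 Preventive test: B. cinerea spore inoculation one day after tomato seedlings were sprayed to run-off with compound suspended in 50/50 acetone–water plus 250 ppm surfactant. Plants held 48 h at 20° C in saturated air, then 3 days at 24° C; visual ratings scored 100 (full control) to 0 versus controls; some entries used 40 ppm.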
# [3] = system: Septoria tritici (the causal agent of wheat leaf blotch); experiment: Test B: wheat leaf blotch, preventive spray on wheat seedlings, visual disease rating; conditions: for Test B rating (100 = 100% disease control, 0 = no disease control relative to the controls): wheat leaf blotch, preventive spray on wheat seedlings
# Outline: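 Preventive test: Septoria tritici spores applied one day after run-off spraying of seedlings (200 ppm equals 800 g/ha; some tests 40 ppm). After 48 h at 24 °C saturated atmosphere and 19 days at 20 °C, disease scored visually as % control relative to untreated plants.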
# [4] = system: Puccinia recondite f. sp. tritici (the causal agent of wheat leaf rust); experiment: Test A: wheat leaf rust, preventive spray on wheat seedlings, visual disease rating; conditions: for Test A rating (100 = 100% disease control, 0 = no disease control relative to the controls): wheat leaf rust, preventive spray on wheat seedlings
# Outline: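 This was a preventive test: Puccinia recondite f. sp. tritici inoculum was applied one day after compound spray to run-off. Test suspensions were made in 50/50 acetone/water with 250 ppm surfactant, at 200 ppm (800 g/ha equivalent) or 40 ppm. Visual ratings of % disease control relative to controls were made after 24 h of saturated humidity and 7 growth-chamber days, all at 20° C.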
# [5] = asterisk: 40 ppm test suspension
# [6] = no asterisk (standard test suspension concentration, not 40 ppm)
# [7] = no asterisk: standard test suspension concentration, 100 = 100% disease control, 0 = no control relative to controls
Structure (SMILES),"Test D rating (100 = 100% disease control, 0 = no disease control relative to the controls) [1, 5]","Test C rating (100 = 100% disease control, 0 = no disease control relative to the controls) [2, 5]","Test B rating (100 = 100% disease control, 0 = no disease control relative to the controls) [3, 5]","Test A rating (100 = 100% disease control, 0 = no disease control relative to the controls) [4, 5]",other results
Cc1cccc(Cl)c1-n1c(C)nc(Br)c1C(O)c1ccc(F)cc1Cl (stereo not drawn) [compound 343],69* %,84* %,100* %,96* %,–
COc1cc(F)c(C(O)c2c(Br)nc(Br)n2-c2ccc(F)cc2Cl)c(F)c1 (racemic) [compound 235],99* %,100* %,100* %,100* %,–
Cc1nc(Br)c(C(O)c2ccc(Cl)cc2)n1-c1ccc(F)cc1Br (stereo not drawn) [compound 172],–,–,–,–,"Test D rating (100 = 100% disease control, 0 = no disease control relative to the controls) [1, 6]: 90%; Test C rating (100 = 100% disease control, 0 = no disease control relative to the controls) [2, 6]: 100%; Test B rating (100 = 100% disease control, 0 = no disease control relative to the controls) [3, 6]: 100%; Test A rating (100 = 100% disease control, 0 = no disease control relative to the controls) [4, 6]: 100%"
COc1cc(F)c(C(O)c2c(Cl)nc(C)n2-c2ccc(F)cc2F)c(F)c1 (racemic) [compound 269],0* %,66* %,96* %,100* %,–
Cc1nc(Cl)n(-c2ccc(F)cc2F)c1C(O)c1ccc(Cl)cc1 (stereo not drawn) [compound 163],–,–,–,–,"Test D rating (100 = 100% disease control, 0 = no disease control relative to the controls) [1, 6]: 13%; Test C rating (100 = 100% disease control, 0 = no disease control relative to the controls) [2, 6]: 100%; Test B rating (100 = 100% disease control, 0 = no disease control relative to the controls) [3, 6]: 100%; Test A rating (100 = 100% disease control, 0 = no disease control relative to the controls) [4, 6]: 98%"
Cc1ncc(C(O)c2ccc(F)cc2Br)n1-c1ccc(F)cc1Cl (racemic) [compound 251],–,–,–,–,"Test D rating (100 = 100% disease control, 0 = no disease control relative to the controls) [1, 6]: 0%; Test C rating (100 = 100% disease control, 0 = no disease control relative to the controls) [2, 6]: 98%; Test B rating (100 = 100% disease control, 0 = no disease control relative to the controls) [3, 6]: 93%; Test A rating (100 = 100% disease control, 0 = no disease control relative to the controls) [4, 6]: 100%"
COc1ccc(C(O)c2c(Br)ncn2-c2c(F)cccc2Cl)c(C)c1 (racemic) [compound 222],0* %,30* %,57* %,91* %,–
Cc1cc(Cl)ccc1C(O)c1c(Br)nc(C)n1-c1c(F)cccc1F (stereo not drawn) [compound 161],84* %,94* %,100* %,92* %,–
Cc1ncc(C(O)c2ccc(Cl)cc2Cl)n1-c1ccc(F)cc1F (racemic) [compound 256],–,–,–,–,"Test D rating (100 = 100% disease control, 0 = no disease control relative to the controls) [1, 6]: 0%; Test C rating (100 = 100% disease control, 0 = no disease control relative to the controls) [2, 6]: 0%; Test B rating (100 = 100% disease control, 0 = no disease control relative to the controls) [3, 6]: 6%; Test A rating (100 = 100% disease control, 0 = no disease control relative to the controls) [4, 6]: 55%"
COc1ccc(C(O)c2c(Br)nc(C)n2-c2c(F)cccc2F)c(F)c1 (stereo not drawn) [compound 53],43* %,99* %,100* %,100* %,–
OC(c1ccc(F)cc1Cl)c1c(Br)nc(Br)n1-c1ccc(F)cc1Cl (racemic) [compound 233],72* %,95* %,100* %,100* %,–
COc1ccc(-n2c(Cl)nc(Cl)c2C(O)c2ccc(F)cc2Cl)c(F)c1 (stereo not drawn) [compound 319],0* %,99* %,100* %,100* %,–
Cc1nc(Cl)n(-c2ccc(F)cc2Br)c1C(O)c1ccc(Cl)cc1Cl (racemic) [compound 11],–,–,–,–,"Test D rating (100 = 100% disease control, 0 = no disease control relative to the controls) [1, 6]: 0%; Test C rating (100 = 100% disease control, 0 = no disease control relative to the controls) [2, 6]: 31%; Test B rating (100 = 100% disease control, 0 = no disease control relative to the controls) [3, 6]: 68%; Test A rating (100 = 100% disease control, 0 = no disease control relative to the controls) [4, 6]: 99%"
COc1ccc(C(O)c2c(Br)nc(Br)n2-c2c(F)cccc2F)c(Cl)c1 (racemic) [compound 286],97* %,100* %,100* %,100* %,–
Cc1nc(C)n(-c2c(F)cc(F)cc2Cl)c1C(O)c1ccc(F)cc1F (racemic) [compound 245],84* %,91* %,100* %,100* %,–
Cc1cc(C#N)ccc1C(O)c1c(Cl)nc(C)n1-c1c(F)cccc1F (stereo not drawn) [compound 164],0* %,0* %,100* %,93* %,–
OC(c1ccc(F)cc1F)c1c(Cl)ncn1-c1c(F)cc(Cl)cc1F (stereo not drawn) [compound 120],0* %,99* %,100* %,98* %,–
Cc1ncc(C(O)c2ccc(F)cc2F)n1-c1c(F)cccc1F (stereo not drawn) [compound 97],0* %,0* %,100* %,95* %,–
"OC(c1ccc(F)cc1F)c1c(Cl)nc(Cl)n1-c1ccc(F)cc1Cl (single isomer, unassigned) [compound 20]",–,–,–,–,"Test D rating (100 = 100% disease control, 0 = no disease control relative to the controls) [1, 6]: 100%; Test C rating (100 = 100% disease control, 0 = no disease control relative to the controls) [2, 6]: 100%; Test B rating (100 = 100% disease control, 0 = no disease control relative to the controls) [3, 6]: 100%; Test A rating (100 = 100% disease control, 0 = no disease control relative to the controls) [4, 6]: 100%"
Cc1cc(F)ccc1C(O)c1c(Cl)nc(Cl)n1-c1c(F)cccc1Cl (racemic) [compound 23],–,–,–,–,"Test D rating (100 = 100% disease control, 0 = no disease control relative to the controls) [1, 6]: 100%; Test C rating (100 = 100% disease control, 0 = no disease control relative to the controls) [2, 6]: 100%; Test B rating (100 = 100% disease control, 0 = no disease control relative to the controls) [3, 6]: 100%; Test A rating (100 = 100% disease control, 0 = no disease control relative to the controls) [4, 6]: 100%"
COc1ccc(C(O)c2c(Cl)nc(C)n2-c2ccc(F)cc2F)c(F)c1 (stereo not drawn) [compound 306],0* %,97* %,100* %,100* %,–
Cc1ncc(C(O)c2ccc(F)cc2F)n1-c1ccc(F)cc1F (stereo not drawn) [compound 381],–,–,–,–,"Test D rating (% disease control, wheat powdery mildew) [1, 7]: 0%; Test C rating (% disease control, tomato Botrytis) [2, 7]: 0%; Test B rating (% disease control, wheat leaf blotch) [3, 7]: 97%; Test A rating (% disease control, wheat leaf rust) [4, 7]: 88%"
Cc1nc(Br)c(C(O)c2ccc(Cl)cc2Cl)n1-c1c(F)cccc1F (stereo not drawn) [compound 202],82* %,100* %,100* %,98* %,–
Cc1nc(Br)c(C(O)c2ccc(Cl)cc2F)n1-c1c(F)cccc1F (stereo not drawn) [compound 179],43* %,78* %,100* %,68* %,–
